In PMC6511888, “Synthesis, Biological Evaluation, and Molecular Modeling Studies of New Thiadiazole Derivatives as Potent P2X7 Receptor Inhibitors” (Frontiers in Chemistry, 2019):
One block for each compound: values may come before it.

How the values were obtained:
P2Y13R = target: T1, P2Y13R (Homo sapiens, UniProt Q9BPV8); assay: ADPβS-induced [Ca2+]i shifts in HEP2G cells; format: cell-based; details: 1 μM
T1 construct: endogenous in cells; host or cells: HEP2G (HEPG2) cells
T1 sequence (Q9BPV8 1-354): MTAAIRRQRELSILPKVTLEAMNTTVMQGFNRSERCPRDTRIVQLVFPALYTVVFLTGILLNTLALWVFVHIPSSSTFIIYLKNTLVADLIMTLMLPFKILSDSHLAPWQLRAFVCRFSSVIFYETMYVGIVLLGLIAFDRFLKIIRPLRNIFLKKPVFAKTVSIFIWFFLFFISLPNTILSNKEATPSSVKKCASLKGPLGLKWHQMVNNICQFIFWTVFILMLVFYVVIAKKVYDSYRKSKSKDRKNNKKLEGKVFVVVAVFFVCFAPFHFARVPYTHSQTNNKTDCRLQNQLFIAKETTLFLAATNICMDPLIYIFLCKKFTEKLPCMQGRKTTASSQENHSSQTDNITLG
Method: (§1) Mouse peritoneal macrophages, PC12 cells, J774 cells, and HEPG2 cells were analyzed by fluorescence microscopy to measure the intracellular Ca^2+ concentrations ([Ca^2+]i). Cells were incubated with 2 μM Fura-2-AM (Molecular Probes) for 30 min, and the [Ca^2+]i mobilization was measured in the F340/F380 ratios with a FlexStation 3 multimode microplate reader (Molecular Devices). Cells were plated in translucent 96-well plates (BD Falcon) for 15 min and then washed and incubated in a saline solution with 150 NaCl, 5 KCl, 1 MgCl2, 1 CaCl2, and 10 HEPES (pH 7.4) for 30 min before measurements of [Ca^2+]i. The Ca^2+ influx was induced by stimulating cells with P2 receptor agonists. P2 receptor antagonists were added 10 min before P2 receptor agonist addition. […] Ionomycin was considered a positive control, and the other recordings were normalized in relation to the AUC.

[1] = tested on: P2X7R-mediated IL-1β release; assay: ATP-induced IL-1β release (ELISA) in differentiated THP-1 cells; format: cell-based, human; details: ATP-induced IL-1β release; LPS/IFN-differentiated human THP-1 cells; read-out: THP-1 cells IC50
Method: P2X7R-mediated IL-1β release was obtained from differentiated THP-1 cells stimulated with lipopolysaccharide (LPS) before ATP addition. […] THP-1 cells were differentiated with 500 ng/ml phorbol 12-myristate 13-acetate (PMA) and 10 ng/ml IFN-γ cotreatment for 24 h. These cells were activated with 25 ng/ml LPS for 4 h. […] P2X7R antagonists (BBG and A740003) and thiadiazole analogs were added 30 min before the ATP stimulus. The supernatants were collected, centrifuged (1,000 rpm for 5 min at 4°C), and stored at −70°C after LPS incubation. IL-1β was quantified using a standard kit (ABCAM, Cambridge).

[2] = tested on: mouse peritoneal macrophages; assay: LDH release assay (toxicity); format: cell-based; details: BBG 750 nM; relative to maximum LDH release caused by 0.05% Triton X-100; mean ± SD
Method: (§2) Mouse peritoneal macrophages (5 × 10^5 cells) and HEK-293 cells transfected with P2X7R (5 × 10^5 cells) were plated in a 96-well-plate for 24 h before the treatment. […] The supernatant collected in this assay was used to measure the presence of LDH in the media using a cytotoxicity detection kit (Sigma kit for LDH) according to the manufacturer's instructions (Faria et al., [2018]).

[3] = LDH release assay (toxicity); format: cell-based, mouse; details: mouse peritoneal macrophages; 24 h; read-out: Macrophages IC50 (toxic effect)
Method: as §2

human P2X7R = target: T2, human P2X7R (Homo sapiens, UniProt Q99572); assay: Dye uptake assay (ethidium bromide) in HEK-293 cells transfected with hP2X7R; format: cell-based; details: ethidium uptake assay; HEK-293 cells transfected with human P2X7R; mean ± SD
T2 construct: expressed in transfected cells; host or cells: HEK-293
T2 sequence (Q99572 1-595): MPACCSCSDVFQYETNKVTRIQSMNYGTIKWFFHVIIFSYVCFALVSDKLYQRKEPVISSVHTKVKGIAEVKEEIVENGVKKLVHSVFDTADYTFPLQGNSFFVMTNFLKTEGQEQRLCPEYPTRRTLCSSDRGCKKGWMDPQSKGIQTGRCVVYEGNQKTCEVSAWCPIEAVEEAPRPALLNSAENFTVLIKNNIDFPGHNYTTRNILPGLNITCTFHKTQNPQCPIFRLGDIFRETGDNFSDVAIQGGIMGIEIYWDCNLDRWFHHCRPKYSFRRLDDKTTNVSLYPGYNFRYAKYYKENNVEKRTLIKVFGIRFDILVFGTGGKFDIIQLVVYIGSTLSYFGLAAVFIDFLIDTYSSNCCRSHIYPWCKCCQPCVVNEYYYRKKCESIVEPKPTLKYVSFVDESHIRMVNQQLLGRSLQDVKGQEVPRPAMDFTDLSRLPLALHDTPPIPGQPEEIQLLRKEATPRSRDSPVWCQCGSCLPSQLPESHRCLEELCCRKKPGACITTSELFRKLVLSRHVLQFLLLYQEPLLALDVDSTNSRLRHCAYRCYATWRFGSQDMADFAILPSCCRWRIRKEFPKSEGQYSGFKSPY
Method: HEK-293 cells expressing human P2X7R were maintained in Dulbecco's modified Eagle's medium (DMEM; Sigma-Aldrich) supplemented with 10% fetal bovine serum (FBS; Prolab, Br) and anti-biotics (50 U/ml penicillin and […] streptomycin) in a humidified 5% CO2 atmosphere at 37°C (Faria et al., [2018]). A total of 5 × 10^5 cells were plated at 37°C in a humidified 5% CO2 atmosphere for 24 h in a 96-well plate for dye uptake or IL-1β release assays.
(§3) HEK-293 cells transfected with hP2X7R and mouse peritoneal macrophages were plated at 2.5 × 10^6 or 5 × 10^5 cells/ml, respectively, in 96-well culture plates containing DMEM with 10% FBS and anti-biotics (50 U/ml penicillin and […] streptomycin) in a humidified 5% CO2 atmosphere at 37°C for 24 h (Faria et al., [2018]).
(§4) P2X7R antagonist and thiadiazole analogs (1 nM to 0.5 mM) were incubated for 5 min before ATP (5 mM) treatment for 20 min. In the last 5 min of ATP incubation, propidium iodide for macrophages (PI; 750 nM) or ethidium bromide (EB; 25 μM) for HEK-293 cells was added to all wells. PI dye was excited at a wavelength of 530 nm, and its fluorescence emission was read at a wavelength of 590 nm using an M5 plate reader (Molecular Devices). EB dye was excited at a wavelength of 530 nm and emitted at a wavelength of 620 nm.

P2X7R = target: T3, P2X7R (Mus musculus, UniProt Q9Z1M0); assay: Dye uptake assay (propidium iodide) in mouse peritoneal macrophages; format: cell-based; details: mean ± SD
T3 construct: plated for 24 h before dye uptake assays, whole-cell patch clamp experiments, and IL-1β release assays; endogenous in cells; host or cells: mouse (Swiss Webster) peritoneal macrophages
T3 sequence (Q9Z1M0 1-595): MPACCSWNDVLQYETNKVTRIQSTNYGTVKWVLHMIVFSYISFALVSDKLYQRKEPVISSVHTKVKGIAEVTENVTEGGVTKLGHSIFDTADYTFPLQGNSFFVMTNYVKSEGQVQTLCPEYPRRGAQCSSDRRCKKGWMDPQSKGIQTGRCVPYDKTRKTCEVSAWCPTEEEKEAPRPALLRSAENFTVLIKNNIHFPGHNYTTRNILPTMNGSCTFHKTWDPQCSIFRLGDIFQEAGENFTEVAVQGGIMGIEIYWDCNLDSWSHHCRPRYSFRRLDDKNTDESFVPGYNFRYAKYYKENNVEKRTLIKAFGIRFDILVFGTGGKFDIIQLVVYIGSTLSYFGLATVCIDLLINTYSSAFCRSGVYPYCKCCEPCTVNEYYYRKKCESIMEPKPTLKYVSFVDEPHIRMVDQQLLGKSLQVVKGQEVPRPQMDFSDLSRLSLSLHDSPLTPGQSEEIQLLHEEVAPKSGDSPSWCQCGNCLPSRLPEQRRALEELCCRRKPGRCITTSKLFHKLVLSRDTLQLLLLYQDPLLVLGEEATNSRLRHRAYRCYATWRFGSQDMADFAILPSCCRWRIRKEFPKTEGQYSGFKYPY
Method: Our protocols adhered to the Ethical Principles in Animal Experimentation adopted by the Brazilian College of Animal Experimentation and approved by the FIOCRUZ Research Ethics Committee (Faria et al., [2005]; number L039- 2016). Male mouse (Swiss Webster) peritoneal macrophages were collected from peritoneal cavity lavage and plated for 24 h before dye uptake assays, whole-cell patch clamp experiments, and IL-1β release assays.
as §3
as §4, with “P2X7R antagonist and thiadiazole analogs (1 nM to 0.5 mM) were incubated for 5 min before ATP (5 mM) treatment for 20 min.” left out

P2Y1R = target: T4, P2Y1R (Mus musculus, UniProt P49650); assay: ADP-induced [Ca2+]i shifts in mouse peritoneal macrophages; format: cell-based; details: 1 μM
T4 construct: endogenous in cells; host or cells: mouse peritoneal macrophages
Method: as §1

P2Y11R = assay: NAADP-induced [Ca2+]i shifts in mouse peritoneal macrophages; format: cell-based; details: 1 μM
Method: as §1

P2X4R = target: T5, P2X4R (Rattus norvegicus, UniProt P51577); assay: ATP-induced [Ca2+]i shifts potentiated by ivermectin in NR8383 alveolar macrophage cell line; format: cell-based; details: 1 μM; NR8383 cells
T5 construct: endogenous in cells; host or cells: NR8383 rat alveolar macrophage cell line
T5 sequence (P51577 1-388): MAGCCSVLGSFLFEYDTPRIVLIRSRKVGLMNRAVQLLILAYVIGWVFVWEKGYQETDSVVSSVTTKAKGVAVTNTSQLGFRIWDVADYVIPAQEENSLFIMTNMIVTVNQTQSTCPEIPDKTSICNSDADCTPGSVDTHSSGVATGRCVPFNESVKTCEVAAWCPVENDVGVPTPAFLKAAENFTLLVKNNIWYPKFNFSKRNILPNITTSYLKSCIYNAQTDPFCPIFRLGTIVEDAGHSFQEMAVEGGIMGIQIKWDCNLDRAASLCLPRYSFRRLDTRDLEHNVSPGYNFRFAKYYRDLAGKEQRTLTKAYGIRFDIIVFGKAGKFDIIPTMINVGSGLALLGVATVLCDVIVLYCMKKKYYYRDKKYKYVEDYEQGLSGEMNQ

P2Y12R = target: T6, P2Y12R (Mus musculus, UniProt Q9CPV9); assay: 2MeSADP-activated [Ca2+]i shifts in mouse peritoneal macrophages; format: cell-based; details: 1 μM
T6 construct: endogenous in cells; host or cells: mouse peritoneal macrophages

P2Y2R = target: T7, P2Y2R (Mus musculus, UniProt P35383); assay: 2-S-UTP-activated [Ca2+]i shifts in mouse peritoneal macrophages; format: cell-based; details: 1 μM
T7 construct: endogenous in cells; host or cells: mouse peritoneal macrophages
Method: as §1

P2Y4R = target: T8, P2Y4R (Mus musculus, UniProt Q9JJS7); assay: MRS4062-induced [Ca2+]i shifts in mice peritoneal macrophages; format: cell-based; details: 1 μM
T8 construct: endogenous in cells; host or cells: mouse peritoneal macrophages
Method: as §1

P2X2R = target: T9, P2X2R (Rattus norvegicus, UniProt P49653); assay: ATP-induced [Ca2+]i shifts in PC12 cells; format: cell-based; details: 1 μM
T9 construct: endogenous in cells; host or cells: PC12 cells
T9 sequence (P49653 1-472): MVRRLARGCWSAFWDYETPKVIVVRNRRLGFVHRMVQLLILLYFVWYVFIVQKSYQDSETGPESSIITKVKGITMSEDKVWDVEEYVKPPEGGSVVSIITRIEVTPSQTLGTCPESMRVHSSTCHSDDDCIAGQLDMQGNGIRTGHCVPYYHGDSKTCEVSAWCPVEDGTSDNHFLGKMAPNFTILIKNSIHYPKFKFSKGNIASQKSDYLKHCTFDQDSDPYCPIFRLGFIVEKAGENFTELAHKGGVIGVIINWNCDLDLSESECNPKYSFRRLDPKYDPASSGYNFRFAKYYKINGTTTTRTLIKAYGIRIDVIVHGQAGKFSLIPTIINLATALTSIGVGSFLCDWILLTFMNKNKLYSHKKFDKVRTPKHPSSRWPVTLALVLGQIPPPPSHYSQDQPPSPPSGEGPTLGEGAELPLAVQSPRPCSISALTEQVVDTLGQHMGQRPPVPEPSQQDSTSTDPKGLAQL
Method: as §1

T4 sequence (P49650 whole entry): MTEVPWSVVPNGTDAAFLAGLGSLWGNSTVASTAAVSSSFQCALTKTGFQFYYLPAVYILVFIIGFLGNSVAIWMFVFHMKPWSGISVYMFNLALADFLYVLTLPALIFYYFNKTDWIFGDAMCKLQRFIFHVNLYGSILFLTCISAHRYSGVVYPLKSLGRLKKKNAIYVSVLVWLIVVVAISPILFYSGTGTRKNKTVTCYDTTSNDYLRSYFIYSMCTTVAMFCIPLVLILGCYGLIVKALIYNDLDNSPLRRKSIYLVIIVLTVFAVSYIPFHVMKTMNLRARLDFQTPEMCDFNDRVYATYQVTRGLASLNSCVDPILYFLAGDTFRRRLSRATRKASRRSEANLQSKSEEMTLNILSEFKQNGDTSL
T6 sequence (Q9CPV9 whole entry): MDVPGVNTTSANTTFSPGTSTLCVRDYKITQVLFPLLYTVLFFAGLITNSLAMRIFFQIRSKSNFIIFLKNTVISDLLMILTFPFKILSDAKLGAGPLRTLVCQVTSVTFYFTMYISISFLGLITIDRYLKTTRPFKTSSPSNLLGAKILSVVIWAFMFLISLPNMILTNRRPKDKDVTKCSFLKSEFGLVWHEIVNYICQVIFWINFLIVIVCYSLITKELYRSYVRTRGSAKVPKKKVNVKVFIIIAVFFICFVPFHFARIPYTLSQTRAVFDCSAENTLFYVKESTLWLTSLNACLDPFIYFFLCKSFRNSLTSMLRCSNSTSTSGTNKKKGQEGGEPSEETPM
T8 sequence (Q9JJS7 whole entry): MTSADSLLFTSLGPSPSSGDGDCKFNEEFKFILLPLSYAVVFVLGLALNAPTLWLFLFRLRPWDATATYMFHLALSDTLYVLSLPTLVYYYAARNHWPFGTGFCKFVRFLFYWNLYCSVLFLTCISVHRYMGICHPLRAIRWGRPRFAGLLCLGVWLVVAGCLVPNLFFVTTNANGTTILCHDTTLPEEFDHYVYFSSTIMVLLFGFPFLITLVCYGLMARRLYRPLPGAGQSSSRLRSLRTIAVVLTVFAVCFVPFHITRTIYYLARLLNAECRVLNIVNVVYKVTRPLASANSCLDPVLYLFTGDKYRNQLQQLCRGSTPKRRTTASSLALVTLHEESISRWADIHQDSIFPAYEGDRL
T7 sequence (P35383 whole entry): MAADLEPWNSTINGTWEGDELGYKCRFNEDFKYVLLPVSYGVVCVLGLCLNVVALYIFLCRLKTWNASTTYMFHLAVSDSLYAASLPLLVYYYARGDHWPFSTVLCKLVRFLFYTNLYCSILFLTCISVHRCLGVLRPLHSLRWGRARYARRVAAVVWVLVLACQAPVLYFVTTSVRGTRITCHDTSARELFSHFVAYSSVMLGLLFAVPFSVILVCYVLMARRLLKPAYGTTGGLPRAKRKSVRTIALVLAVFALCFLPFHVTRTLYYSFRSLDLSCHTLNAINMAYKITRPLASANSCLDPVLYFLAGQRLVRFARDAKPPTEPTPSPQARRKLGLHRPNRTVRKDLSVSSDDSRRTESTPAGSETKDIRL

Structure (SMILES): CCOc1ccc(Nc2ccc(/C(=C3C=C/C(=[N+](/CC)Cc4cccc(S(=O)(=O)[O-])c4)C=C/3C)c3ccc(N(CC)Cc4cccc(S(=O)(=O)O)c4)cc3C)cc2)cc1 [BBG, Brilliant Blue G, reference compound]
- IC50 [1]: 1900 ± 300 nM
- % LDH release [2]: 13.2 ± 2.6%
- IC50 at 24 h [3]: 87000 ± 1000 nM
- IC50 (human P2X7R): 589 ± 12 nM
- inhibition at 0.75 µM (P2X7R; BBG 750 nM, percentage relative to the maximum uptake of propidium stimulated by 1 mM ATP only): 78.8 ± 3.8%
- IC50 (P2X7R; propidium uptake assay, mice peritoneal macrophages): 1200 ± 100 nM

Structure (SMILES): CNc1ncnc2c1ncn2[C@H]1C[C@H](OP(=O)(O)O)[C@@H](COP(=O)(O)O)O1 [MRS 2179]
- Effect on ADP-induced [Ca2+]i shifts (P2Y1R): inhibited

Structure (SMILES): Cc1ccc(C(=O)Nc2cc(S(=O)(=O)O)cc3ccc(S(=O)(=O)O)cc23)cc1NC(=O)Nc1cc(C(=O)Nc2cc(S(=O)(=O)O)cc3ccc(S(=O)(=O)O)cc23)ccc1C [NF340]
- Effect on NAADP-induced [Ca2+]i shifts (P2Y11R): inhibited

Structure (SMILES): O=C1CN=C(c2cccc(Br)c2)c2oc3ccccc3c2N1 [Compound 5BDBD]
- Effect on ATP-induced [Ca2+]i shifts potentiated by 1 μM ivermectin (P2X4R): inhibited

Structure (SMILES): CCCSc1nc(N[C@@H]2C[C@H]2c2ccc(F)c(F)c2)c2nnn([C@@H]3C[C@H](OCCO)[C@@H](O)[C@H]3O)c2n1 [Ticagrelor]
- Effect on 2MeSADP-activated [Ca2+]i shifts (P2Y12R): inhibited

Structure (SMILES): Cc1ccc2c(c1)C=Cc1cc(C)ccc1C2c1cn(Cc2ccc(C(=O)Nc3nn[nH]n3)o2)c(=O)[nH]c1=S [AR-C 118925XX]
- Effect on 2-S-UTP-activated [Ca2+]i shifts (P2Y2R): inhibited

Now from value to compound:

- Effect on ADPβS-induced [Ca2+]i shifts (P2Y13R): inhibited
Structure (SMILES): Cc1nc(N=Nc2cc([N+](=O)[O-])ccc2Cl)c(COP(=O)(O)O)c(C=O)c1O [MRS2211]

- Effect on MRS4062-induced [Ca2+]i shifts (P2Y4R): inhibited
Structure (SMILES): S=C=Nc1cccc(NC(=S)NCCCCNC(=S)Nc2cccc(N=C=S)c2)c1 [MRS2578]

- Effect on ATP-induced [Ca2+]i shifts (P2X2R): inhibited
Structure (SMILES): COc1cc(S(=O)(=O)O)cc2cc(S(=O)(=O)O)c(NC(=O)c3ccc(C)c(NC(=O)c4cccc(NC(=O)Nc5cccc(C(=O)Nc6cc(C(=O)Nc7cc8c(OC)cc(S(=O)(=O)O)cc8cc7S(=O)(=O)O)ccc6C)c5)c4)c3)cc12 [NF770]
